Reference: patent US11230535B2, “CFTR regulators and methods of use thereof” (THE REGENTS OF THE UNIVERSITY OF CALIFORNIA, priority 2015, dated 2022)
Like-named read-outs stand apart in the source and are kept apart here. Positions of bridges follow the written chain, without caps; N, C: chain ends. Residues, ends and D or L forms follow the SMILES beside them.

Experiments:
human wild-type CFTR [1] = target: T1, human wild-type CFTR (Homo sapiens, UniProt P13569); test: Cell-based plate reader (YFP iodide influx) assay of CFTR function; design: expressed in transfected cells; host or cells: Fischer rat thyroid (FRT) cells stably co-expressing YFP-H148Q; conditions: commercial analogs
Method: The initiate rate of I^− influx was computed by determined using exponential regression. All compound plates contained negative controls (DMSO vehicle) and positive controls (20 μM forskolin).
High-throughput screening. […] The initiate rate of I^− influx was computed by determined using exponential regression. All compound plates contained negative controls (DMSO vehicle) and positive controls ([…] forskolin).
Platereader assays of chloride channel function. CFTR activity was assayed as described. […] I^− influx was measured in a plate reader with initial baseline read for 2 s and then for 12 s after rapid addition of an I^−-containing solution. TMEM16A activity was assayed similarly as described using FRT cells co-expressing YFP and TMEM16A. Activity of non-TMEM16A CaCC was assayed as described in HT-29 cells expressing YFP. In each assay initial rates of I^− influx were computed as a linear measure of channel function.

[2] = test system: CFTR activity at the ocular surface; test: Ocular surface potential difference (PD) in living mice; type: in vivo, mouse; conditions: CF mice lacking functional CFTR
Method: (§1) Open-circuit transepithelial PD were measured continuously in anesthetized mice in response to serial perfusions of different solutions over the ocular surface, as described (21). Mice were anesthetized with Avertin (2,2,2-tribromoethanol, 125 mg/kg intraperitoneal, Sigma-Aldrich, St. Louis, Mo., USA), and core temperature was maintained at 37° C. using a heating pad. Eyes were oriented with the cornea and conjunctiva facing upward and exposed by retracting the eyelid with cross-action forceps. Solutions were isosmolar (320±10 mOsM; compositions provided in ref. 21) and contained 10μ[…] Qindomethacin to prevent CFTR activation by prostaglandins. The ocular surface was perfused at 6 mL/min through plastic tubing using a multireservoir gravity pinch-valve system (ALA Scientific, Westbury, N.Y., USA) and variable-flow peristaltic pump (medium flow model; Fisher Scientific, Fair Lawn, N.J., USA). A probe catheter was fixed 1 mm above the cornea using a micropositioner and a suction cannula was positioned 3 mm from the orbit. The measuring electrode was in contact to the perfusion catheter and connected to a high-impedance voltmeter (IsoMilivolt Meter; WPI). The reference electrode was grounded via a winged 21-gauge needle filled with isosmolar saline, and inserted subcutaneously in the abdomen. Measuring and reference electrodes consisted of Ag/AgCl with 3 M KCl agar bridges.
An open-circuit potential difference (PD) method developed in our lab was used to evaluate compound activity at the ocular surface in vivo, as depicted in FIG. 3A (21). Cl^− channel function was quantified by measuring PD during continuous perfusion of the ocular surface with a series of solutions that imposed a transepithelial Cl^− gradient and contained various channel agonists and/or inhibitors. The ocular surface was first perfused with isosmolar saline to record the baseline PD. Amiloride was then added to the perfusate, followed by exchange to a low Cl^− solution in which Cl^− with an impermeant anion, gluconate. These maneuvers allow for direct visualization of CFTR activation in response to addition of candidate CFTR activators.
as §1, with “Ocular surface potential difference measurements. Open-circuit” for “Open-circuit”, “indomethacin” for “Qindomethacin”, “Measuring and reference electrodes consisted of Ag/AgCl with 3 M KCl agar bridges.” left out

human wild-type CFTR [3] = target: T1, human wild-type CFTR; test: Short-circuit current in FRT cells expressing wild-type human CFTR; type: cell-based; design: expressed in transfected cells; conditions: 100% = 20 μM forskolin
Method: Short-circuit current was measured in FRT cells stably expressing wild-type human CFTR cultured on porous filters as described. The basolateral solution contained 130 mM NaCl, 2.7 mM KCl, 1.5 mM KH2PO4, 1 mM CaCl2, 0.5 mM MgCl2, 10 mM glucose, and 10 mM Na-HEPES (pH 7.3, 37° C.). In the apical solution 65 mM NaCl was replaced by Na gluconate, and CaCl2 was increased to 2 mM, and the basolateral membrane was permeabilized with 250 μg/ml amphotericin B. Short-circuit current was measured in freshly harvested adult mouse colon at 37° C. using symmetrical Krebs-bicarbonate buffer.
(§2) Fischer rat thyroid (FRT) cells stably expressing wild-type human CFTR were cultured on Snapwell inserts (Corning Costar, Corning N.Y., USA) for short-circuit current (Isc) measurements. After 6-9 days in culture, when the transepithelial resistance was >1000 Ω/cm^2, the inserts were mounted in an Ussing chamber system (World Precision Instruments, Sarasota, Fla., USA). The basolateral solution contained 130 mM NaCl, 2.7 mM KCl, 1.5 mM KH2PO4, 1 mM CaCl2, 0.5 mM MgCl2, 10 mM glucose, and 10 mM Na-HEPES (pH 7.3). In the apical bathing solution, 65 mM NaCl was replaced by Na gluconate, and CaCl2 was increased to 2 mM. Both solutions were bubbled with air and maintained at 37° C. The basolateral membrane was permeabilized with 250 μg/ml amphotericin B (26, 27). Hemichambers were connected to a DVC-1000 voltage clamp via Ag/AgCl electrodes and 3 M KCl agar bridges for Isc recording.
Short-circuit current measurement. Short-circuit current was measured in FRT cells stably expressing wild-type human CFTR cultured on porous filters as described. The basolateral solution contained 130 mM NaCl, 2.7 mM KCl, 1.5 mM KH2PO4, 1 mM CaCl2, 0.5 mM MgCl2, 10 mM glucose, and 10 mM Na-HEPES (pH 7.3, 37° C.). In the apical solution 65 mM NaCl was replaced by Na gluconate, and CaCl2 was increased to 2 mM, and the basolateral membrane was permeabilized with 250 μg/ml amphotericin B. Short-circuit current was measured in freshly harvested adult mouse colon at 37° C. using symmetrical Krebs-bicarbonate buffer.
as §2, with “Short-circuit current. Fischer” for “Fischer”
Short-circuit current measurement. Short-circuit current measurements were done as described. Briefly, Snapwell (Corning Costar, Corning, N.Y.) inserts containing CFTR-expressing FRT cells or human bronchial epithelial cells were mounted in Ussing chambers (Physiological Instruments, San Diego, Calif.). For FRT cells the hemichambers were filled with 5 ml of HCO3^−-buffered solution (basolateral) and half-Cl^− solution (apical), and the basolateral membrane was permeabilized with 250 μg/ml amphotericin B. Symmetrical HCO3^−-buffered solutions were used for human bronchial epithelial cells. Solutions were bubbled with 95% O2/5% CO2 and maintained at 37° C., and short-circuit current was measured on a DVC-1000 voltage clamp (World Precision Instruments Inc., Sarasota, Fla.) using Ag/AgCl electrodes and 3 M KCl agar bridges.

loperamide-treated mice = test: Loperamide-induced mouse model of constipation (3-h stool weight, pellet number, water content); conditions: oral 0.5 mg/kg, loperamide-treated mice
constipation patients = conditions: cited from earlier work

T1 sequence (P13569 whole entry): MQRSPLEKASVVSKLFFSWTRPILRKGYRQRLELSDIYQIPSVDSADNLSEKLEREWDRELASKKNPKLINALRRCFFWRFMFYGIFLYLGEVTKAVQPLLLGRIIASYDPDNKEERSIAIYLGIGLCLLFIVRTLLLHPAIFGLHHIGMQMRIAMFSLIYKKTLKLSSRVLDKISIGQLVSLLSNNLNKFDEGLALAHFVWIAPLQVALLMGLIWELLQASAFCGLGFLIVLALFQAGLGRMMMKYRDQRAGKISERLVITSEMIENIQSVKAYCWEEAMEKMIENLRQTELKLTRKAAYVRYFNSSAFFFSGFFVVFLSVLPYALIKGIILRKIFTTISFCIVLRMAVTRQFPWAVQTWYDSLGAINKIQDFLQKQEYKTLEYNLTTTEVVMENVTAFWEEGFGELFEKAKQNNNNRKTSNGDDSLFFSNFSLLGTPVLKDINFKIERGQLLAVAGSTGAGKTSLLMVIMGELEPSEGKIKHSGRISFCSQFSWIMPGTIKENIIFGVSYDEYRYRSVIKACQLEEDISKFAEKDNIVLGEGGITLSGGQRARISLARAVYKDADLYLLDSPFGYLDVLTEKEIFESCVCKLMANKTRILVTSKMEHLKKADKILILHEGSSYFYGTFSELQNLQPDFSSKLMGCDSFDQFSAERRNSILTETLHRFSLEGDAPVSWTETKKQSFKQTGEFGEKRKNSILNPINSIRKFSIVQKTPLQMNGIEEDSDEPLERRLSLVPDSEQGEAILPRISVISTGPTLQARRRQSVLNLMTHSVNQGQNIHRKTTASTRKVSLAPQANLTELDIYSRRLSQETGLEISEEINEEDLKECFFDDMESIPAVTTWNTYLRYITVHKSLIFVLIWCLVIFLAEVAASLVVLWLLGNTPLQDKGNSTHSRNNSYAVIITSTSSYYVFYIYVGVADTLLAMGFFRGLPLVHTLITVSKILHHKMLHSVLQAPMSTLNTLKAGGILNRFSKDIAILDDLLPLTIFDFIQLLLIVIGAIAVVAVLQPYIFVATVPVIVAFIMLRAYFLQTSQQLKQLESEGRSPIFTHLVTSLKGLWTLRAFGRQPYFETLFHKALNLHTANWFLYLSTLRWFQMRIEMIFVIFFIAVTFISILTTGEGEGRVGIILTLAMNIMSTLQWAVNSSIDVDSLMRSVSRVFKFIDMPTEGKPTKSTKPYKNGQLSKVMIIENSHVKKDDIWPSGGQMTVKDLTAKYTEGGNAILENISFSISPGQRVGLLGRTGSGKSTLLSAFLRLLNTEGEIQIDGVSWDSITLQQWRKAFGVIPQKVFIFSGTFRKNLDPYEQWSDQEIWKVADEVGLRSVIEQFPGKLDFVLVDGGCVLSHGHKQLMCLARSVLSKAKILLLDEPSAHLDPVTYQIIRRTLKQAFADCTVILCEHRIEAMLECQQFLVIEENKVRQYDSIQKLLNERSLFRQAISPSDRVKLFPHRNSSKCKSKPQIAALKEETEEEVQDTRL

| SMILES | % Activation (human wild-type CFTR [1]; FRT cells with YFP and wildtype CFTR, 125 nM forskolin) [%] | EC50 (human wild-type CFTR [1]; read-out: EC50 (full-dose response assay, compounds >80% activation)) [nM] | change in ocular surface PD in CF mice [2] | CFTR activation, Vmax (human wild-type CFTR [3]) [% Vmax] | stool output response as % of the maximal CFTRact-J027 response (loperamide-treated mice) [%] | patients in whom the drug was effective (constipation patients; chronic constipation patients) [%] | patients in whom the drug was effective (constipation patients; IBS-C patients) [%] |
| --- | --- | --- | --- | --- | --- | --- | --- |
| CNc1nc(Nc2ccc([N+](=O)[O-])cc2)nc(OCC(F)(F)C(F)F)n1 [K032] | 105 | 70 | no changes in PD | ~50 | – | – | – |
| C[C@@H]1NC(=O)[C@@H]2CCCN2C(=O)[C@H](CC(N)=O)NC(=O)[C@@H]2CSSC[C@H](N)C(=O)N[C@H]3CSSC[C@H](NC1=O)C(=O)N[C@@H]([C@@H](C)O)C(=O)NCC(=O)N[C@H](C(=O)N[C@@H](Cc1ccc(O)cc1)C(=O)O)CSSC[C@H](NC(=O)[C@H](Cc1ccc(O)cc1)NC(=O)[C@H](CCC(=O)O)NC3=O)C(=O)N2 [linaclotide, reference compound] (H-CCEYCCNPACTGCY-OH; disulfide 1-6, 2-10, 5-13) | – | – | – | – | 35 | ~20 | – |
| CCCCC(F)(F)[C@@]1(O)CC[C@H]2[C@@H](CC(=O)[C@@H]2CCCCCCC(=O)O)O1 [lubiprostone, reference compound] | – | – | – | – | 50 | – | ~13 |
